Test results from patent US9244073B2, “Assays for detecting enzymatic activity” (Wellstat Diagnostics, LLC, priority 2011, dated 2016).
Primed or numbered codes have the meaning given here. KLCBiot = lysine with long-chain biotin conjugated to the side-chain primary amine (Lysine-Long-Chain-Biotin); mPeg2 = hydrophilic 9-atom polyethylene (PEG) spacer; Bz′ = not defined here

What was measured:
[1] = test system: FXa; experiment: Detecting FXa activity by detection of a neoepitope with TAG Plus anti-FLAG M1 detector antibody (ECL immunoassay); format: biochemical
Source text: FXa activity can be measured using peptides comprising a FXa recognition site (-IEGR-) (SEQ ID NO:1) at their N-terminus followed by an amino acid sequence which can be cleaved “off” by FXa. For example, peptide sequence III, below, can be cleaved by FXa to produce peptide sequence IV below. The FXa cleavage of the peptide bond after the arginine residue of the -IEGR- sequence (SEQ ID NO:1) produces a free NH2 group at the N-terminal of the peptide sequence (sequence IV) and the peptide sequence becomes a new epitope (neoepitope) after cleavage.
A FXa activity calibrator curve was set up in a 96-well U bottom microtiter plate containing 100 μL of a 3-fold serial dilution of FXa at 500, 167, 55.6, 18.5, 6.17, 2.06 and 0.686 ng/mL in an assay buffer [50 mM Tris-HCl (pH 7.4), 100 mM NaCl, 0.5% BSA, 10 mg/mL ciprofloxacin, 0.5% Tween-20 and 7.0 mM CaCl2] and 50 μL of a master mix of FXa detection reagent containing 200 μg/mL of M280-SA beads, 600 ng/mL of a peptide sequence V and 1000 ng/mL of TAG Plus anti-FLAG® M1 antibody (Example 2) in the same assay buffer. The peptide sequence V comprises peptide sequence III and a sequence HHHHHH(mPeg2)(KLCBiot)-amide (SEQ ID NO:9). The HHHHHH(mPeg2) (SEQ ID NO:9), a mini-PEG molecule with 9 carbon polyethylene molecule, serves as a spacer, which was conjugated with a lysine at its C-terminus. A biotin molecule was conjugated to the primary amine group on the side chain of the lysine. The peptide can be captured through the high affinity interaction between biotin and streptavidin molecule.
The plate was incubated on a hot plate (Digital Heatblock, Cat. 12621-100, VWR International, LLC., West Chester, Pa. 19380) at 37° C. for 10 or 20 minutes. After the incubation, the beads were washed once in 150 μL of the PBS-based buffer solution (Example 1) and recovered by attaching a plate magnet to the 96-well plate (LIFESEP™ 96F, Dexter Magnetic Technologies Inc., Elk Grove Village, Ill. 60007). Beads were resuspended in 150 μL of the PBS-based buffer and read in a M1MR analyzer. […] Under both incubation conditions, FXa activities were detectable at 1.00 ng/mL or lower concentrations of FXa (signal/background ≧3.0). This lower detection limit is unexpectedly much better than that achieved in Example 1.

[2] = test system: FXa; experiment: Detecting FXa activity by capturing the TAG-labeled neoepitope with anti-FLAG M1 beads (ECL); format: biochemical
Description: A FXa activity calibrator curve was set up in a 96-well U bottom microtiter plate containing 50 μL of a 3-fold serial dilution of FXa at 1000, 333, 111, 37.0, 12.3, 4.12 and 1.37 ng/mL in the assay buffer (Example 4) and 25 μL of NH2-IEGRDYKDDDDKGS-TAG (SEQ ID NO:5) (1.25, 2.5 or 5.0 μg/mL) in a hot plate at 37° C. for 10 minutes. After the incubation, 50 μL of Bi-anti-FLAG®-M1 antibody prebound beads (200 μg/mL concentration at the ratio of 10 μg of antibody per 1.0 mg of beads) were added, followed by an incubation for another 20 minutes at 37° C. After the incubation, the beads were washed once in 150 μL of the PBS-based buffer solution (Example 3) and were resuspended in 150 μL of the PBS-based buffer before beads were read in a M1MR analyzer (BioVeris).

[3] = 10 minute incubation, FXa 0.686 ng/mL
[4] = 10 minute incubation, FXa 2.06 ng/mL
[5] = 10 minute incubation, FXa 6.17 ng/mL
[6] = 10 minute incubation, FXa 18.5 ng/mL
[7] = 10 minute incubation, FXa 55.6 ng/mL
[8] = 10 minute incubation, FXa 167 ng/mL
[9] = 10 minute incubation, FXa 500 ng/mL
[10] = 20 minute incubation, FXa 0.686 ng/mL
[11] = 20 minute incubation, FXa 2.06 ng/mL
[12] = 20 minute incubation, FXa 6.17 ng/mL
[13] = 20 minute incubation, FXa 18.5 ng/mL
[14] = 20 minute incubation, FXa 55.6 ng/mL
[15] = 20 minute incubation, FXa 167 ng/mL
[16] = 20 minute incubation, FXa 500 ng/mL
[17] = substrate 1.25 μg/mL, FXa 1.37 ng/mL
[18] = substrate 1.25 μg/mL, FXa 4.12 ng/mL
[19] = substrate 1.25 μg/mL, FXa 12.3 ng/mL
[20] = substrate 1.25 μg/mL, FXa 37.0 ng/mL
[21] = substrate 1.25 μg/mL, FXa 111 ng/mL
[22] = substrate 1.25 μg/mL, FXa 333 ng/mL
[23] = substrate 1.25 μg/mL, FXa 1000 ng/mL
[24] = substrate 2.5 μg/mL, FXa 1.37 ng/mL
[25] = substrate 2.5 μg/mL, FXa 4.12 ng/mL
[26] = substrate 2.5 μg/mL, FXa 12.3 ng/mL
[27] = substrate 2.5 μg/mL, FXa 37.0 ng/mL
[28] = substrate 2.5 μg/mL, FXa 111 ng/mL
[29] = substrate 2.5 μg/mL, FXa 333 ng/mL
[30] = substrate 2.5 μg/mL, FXa 1000 ng/mL
[31] = substrate 5.0 μg/mL, FXa 1.37 ng/mL
[32] = substrate 5.0 μg/mL, FXa 4.12 ng/mL
[33] = substrate 5.0 μg/mL, FXa 12.3 ng/mL
[34] = substrate 5.0 μg/mL, FXa 37.0 ng/mL
[35] = substrate 5.0 μg/mL, FXa 111 ng/mL
[36] = substrate 5.0 μg/mL, FXa 333 ng/mL
[37] = substrate 5.0 μg/mL, FXa 1000 ng/mL

FXa, sequence (P00742 41-179 limits assumed): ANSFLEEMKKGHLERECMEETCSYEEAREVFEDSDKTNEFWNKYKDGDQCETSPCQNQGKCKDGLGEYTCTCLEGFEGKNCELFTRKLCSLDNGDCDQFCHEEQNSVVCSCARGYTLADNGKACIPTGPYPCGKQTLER
FXa, sequence (P00742 235-488 limits assumed): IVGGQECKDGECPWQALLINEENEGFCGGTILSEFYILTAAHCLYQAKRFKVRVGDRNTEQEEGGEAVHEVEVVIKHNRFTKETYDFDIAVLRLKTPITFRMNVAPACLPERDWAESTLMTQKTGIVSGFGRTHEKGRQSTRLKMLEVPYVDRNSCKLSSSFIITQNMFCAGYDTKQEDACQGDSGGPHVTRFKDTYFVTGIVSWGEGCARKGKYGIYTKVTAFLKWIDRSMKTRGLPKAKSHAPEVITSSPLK

## Bz-IEGRDYKDDDDKGSHHHHHH(mPeg2)(KLCBiot)-amide ({Bz′}-IEGRDYKDDDDKGSHHHHHH-{mPeg2-KLCBiot-NH2}) [Peptide sequence V]
[1]; [3]
  Mean Signal: 856
  Signal/Background: 2.5
[1]; [4]
  Mean Signal: 1427
  Signal/Background: 4.1
[1]; [5]
  Mean Signal: 3105
  Signal/Background: 9.0
[1]; [6]
  Mean Signal: 8793
  Signal/Background: 25
[1]; [7]
  Mean Signal: 33734
  Signal/Background: 98
[1]; [8]
  Mean Signal: 113240
  Signal/Background: 328
[1]; [9]
  Mean Signal: 298048
  Signal/Background: 864
[1]; [10]
  Mean Signal: 1047
  Signal/Background: 3.3
[1]; [11]
  Mean Signal: 2109
  Signal/Background: 6.6
[1]; [12]
  Mean Signal: 6035
  Signal/Background: 19
[1]; [13]
  Mean Signal: 20653
  Signal/Background: 65
[1]; [14]
  Mean Signal: 73974
  Signal/Background: 232
[1]; [15]
  Mean Signal: 224915
  Signal/Background: 706
[1]; [16]
  Mean Signal: 497703
  Signal/Background: 1562

## NH2-IEGRDYKDDDDKGS-TAG (TAG label; includes cleavage recognition site and binding site for anti-FLAG antibody)
[2]; [17]
  Mean Signal: 1140
  Signal/Background: 1.9
[2]; [18]
  Mean Signal: 2174
  Signal/Background: 3.7
[2]; [19]
  Mean Signal: 4437
  Signal/Background: 7.5
[2]; [20]
  Mean Signal: 10667
  Signal/Background: 18
[2]; [21]
  Mean Signal: 20521
  Signal/Background: 35
[2]; [22]
  Mean Signal: 52797
  Signal/Background: 89
[2]; [23]
  Mean Signal: 69011
  Signal/Background: 116
[2]; [24]
  Mean Signal: 1393
  Signal/Background: 1.6
[2]; [25]
  Mean Signal: 3828
  Signal/Background: 4.5
[2]; [26]
  Mean Signal: 7696
  Signal/Background: 9.0
[2]; [27]
  Mean Signal: 20144
  Signal/Background: 24
[2]; [28]
  Mean Signal: 41788
  Signal/Background: 49
[2]; [29]
  Mean Signal: 62747
  Signal/Background: 73
[2]; [30]
  Mean Signal: 78193
  Signal/Background: 91
[2]; [31]
  Mean Signal: 3725
  Signal/Background: 2.1
[2]; [32]
  Mean Signal: 6363
  Signal/Background: 3.6
[2]; [33]
  Mean Signal: 14866
  Signal/Background: 8.4
[2]; [34]
  Mean Signal: 32274
  Signal/Background: 18
[2]; [35]
  Mean Signal: 62147
  Signal/Background: 35
[2]; [36]
  Mean Signal: 78710
  Signal/Background: 45
[2]; [37]
  Mean Signal: 86900
  Signal/Background: 49
